Test systems include T-47D breast; HCT-116 colon; SNB-75 CNS; MDA-MB-435; K-562 leukemia; 786-0 renal; MALME-3M melanoma; NCI-H226 lung; SK-MEL-28 melanoma; ACHN renal.
What all share (assay): NCI anticancer screen, dose series, 48 h

Consider 14 compounds from PubChem BioAssay (NCI).

Structures are written as SMILES.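 Compound exposure: 48 hours, 5 concentrations, 96-well plates. Abbreviation: GI50, concentration required for 50% inhibition of growth. TGI: concentration producing complete growth inhibition.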

For the compound `CC1=NN2CCC(=O)N=C2S1`, the TGI in the test on T-47D breast, in the test on HCT-116 colon, with SNB-75 CNS, with MDA-MB-435, in the test on K-562 leukemia and in the test with 786-0 renal was greater than 100 µM in each case. Moreover, the TGI with MALME-3M melanoma, in the test with NCI-H226 lung, in the test with SK-MEL-28 melanoma and in the test with ACHN renal was greater than 100 µM in each case.

Consider `OCC(S)CS.[Bi]` (configuration not stated), for which the TGI in the test with T-47D breast is 31.5 µM; with HCT-116 colon it was 44.4 µM; with SNB-75 CNS it was 26.8 µM; in the test on MDA-MB-435, 35.6 µM; in the test with K-562 leukemia it was greater than 100 µM; in the test with 786-0 renal, 39.3 µM. Besides, the TGI in the test with MALME-3M melanoma was 17.6 µM; in the test with NCI-H226 lung, greater than 100 µM; with SK-MEL-28 melanoma it was 28.3 µM; with ACHN renal, 30.6 µM.

On to `COc1ccc(S(=O)(=O)Nc2cc(Sc3cccc4cccnc34)c(O)c3ccccc23)cc1`, for which the GI50 in the test with T-47D breast was 1.73 µM; with HCT-116 colon it was 0.505 µM; in the test with SNB-75 CNS, 3.41 µM; in the test with MDA-MB-435, 2.2 µM; in the test on K-562 leukemia, 0.926 µM; with MALME-3M melanoma, 2.88 µM. The GI50 in the test with NCI-H226 lung was 2.28 µM; in the test with SK-MEL-28 melanoma it was 2.55 µM; with ACHN renal it was 0.731 µM. Also, the TGI in the test with T-47D breast came to 5.64 µM; in the test with HCT-116 colon, 2.35 µM; in the test with SNB-75 CNS, 13.5 µM; in the test with MDA-MB-435, 13.2 µM; in the test with K-562 leukemia it was 11.2 µM; with MALME-3M melanoma, 11.5 µM. Also, the TGI with NCI-H226 lung amounted to 19.9 µM; in the test with SK-MEL-28 melanoma, 13.2 µM; in the test with ACHN renal, 10 µM.

Regarding `Cc1oc2nc(N(C)C)n3cnnc3c2c1C`, the TGI in the test on T-47D breast, in the test with HCT-116 colon, in the test on SNB-75 CNS, in the test with MDA-MB-435, in the test on K-562 leukemia and with 786-0 renal was greater than 100 µM throughout. Further, the TGI with NCI-H226 lung, in the test with SK-MEL-28 melanoma and in the test on ACHN renal was greater than 100 µM in each case.

`CC1C(c2ccccc2)NC(c2ccccc2)CC1(N)C#N` (configuration not stated): the TGI in the test with T-47D breast, in the test on HCT-116 colon, in the test on SNB-75 CNS, in the test with MDA-MB-435, with K-562 leukemia and in the test with 786-0 renal was greater than 100 µM each time. Further, the TGI with NCI-H226 lung, in the test with SK-MEL-28 melanoma and in the test on ACHN renal was greater than 100 µM each time.

In the case of `Cn1c2ccccc2c2c3c(c4c5ccccc5n(C)c4c21)C(=O)N(c1ccccc1)C3=O`, the TGI with T-47D breast, in the test with HCT-116 colon, with SNB-75 CNS, in the test with MDA-MB-435, in the test on K-562 leukemia and in the test on 786-0 renal was greater than 100 µM in each case. Also, the TGI in the test on MALME-3M melanoma, in the test with NCI-H226 lung, with SK-MEL-28 melanoma and in the test with ACHN renal was greater than 100 µM in each case.

With `NC(=S)NS(=O)(=O)c1ccc(Cl)cc1`, the TGI in the test with T-47D breast, with HCT-116 colon, in the test with SNB-75 CNS, in the test with MDA-MB-435, with K-562 leukemia and in the test on 786-0 renal was greater than 100 µM in each case. In addition, the TGI in the test with MALME-3M melanoma, in the test on NCI-H226 lung, with SK-MEL-28 melanoma and in the test on ACHN renal was greater than 100 µM each time.

Take `CCN(CC)C(=O)c1cc([N+](=O)[O-])c(=O)n2c1[nH]c1ccccc12`: the TGI in the test on T-47D breast, in the test with HCT-116 colon, with SNB-75 CNS, in the test on MDA-MB-435, in the test on K-562 leukemia and in the test on 786-0 renal was greater than 100 µM each time. Moreover, the TGI in the test on MALME-3M melanoma, in the test on NCI-H226 lung, with SK-MEL-28 melanoma and with ACHN renal was greater than 100 µM each time.

On to `COC(=O)/C=C\C(C#N)(C#N)N=Cc1ccc(Br)cc1`, for which the TGI is 14 µM with T-47D breast; greater than 60.5 µM with HCT-116 colon; 28.8 µM with SNB-75 CNS; 22.4 µM with MDA-MB-435; greater than 100 µM in the test on K-562 leukemia; greater than 48.9 µM in the test on 786-0 renal. In addition, the TGI in the test with MALME-3M melanoma is 12.4 µM; in the test on NCI-H226 lung, 20.6 µM; in the test on SK-MEL-28 melanoma, 32.1 µM; in the test on ACHN renal, 8.92 µM.

As for `CC(C)=C=CP(=O)(O)c1ccccc1`, the TGI in the test with T-47D breast, in the test on HCT-116 colon, with SNB-75 CNS, in the test with MDA-MB-435, in the test on K-562 leukemia and in the test with 786-0 renal was greater than 100 µM throughout. Further, the TGI in the test with MALME-3M melanoma, in the test with NCI-H226 lung, in the test on SK-MEL-28 melanoma and in the test with ACHN renal was greater than 100 µM in each case.

In the case of `Nc1c(C(=O)O)nnc2cc(Cl)ccc12`, the TGI in the test with T-47D breast, in the test with HCT-116 colon, in the test on SNB-75 CNS, in the test on MDA-MB-435, in the test on K-562 leukemia and with 786-0 renal was greater than 100 µM each time. Besides, the TGI in the test on MALME-3M melanoma, with NCI-H226 lung and in the test on ACHN renal was greater than 100 µM in each case.

On to `Clc1ncnc2c1nc(C#Cc1ccccc1)n2C1CCCCO1` (configuration not stated), for which the TGI with T-47D breast came to 4.55 µM; in the test on HCT-116 colon, 4.02 µM; in the test on SNB-75 CNS, 7.78 µM; in the test on MDA-MB-435, 5.84 µM; with K-562 leukemia, 7.46 µM; with 786-0 renal, 3.64 µM. For the same compound, the TGI came out at 3.91 µM in the test with MALME-3M melanoma, 6.47 µM in the test on NCI-H226 lung, 4.78 µM with SK-MEL-28 melanoma and 3.06 µM with ACHN renal.

For the compound `NS(=O)(=O)c1ccc(NCc2nc3ccccc3[nH]2)cc1`, the TGI in the test with T-47D breast, with HCT-116 colon, with SNB-75 CNS, in the test with MDA-MB-435, in the test with 786-0 renal and in the test on MALME-3M melanoma was greater than 100 µM each time. Further, the TGI in the test on NCI-H226 lung and in the test on ACHN renal was greater than 100 µM throughout.

With `O=C(CN1CCN(c2ccccn2)CC1)N1CCCn2c1nc1ccccc1c2=O`, the TGI with T-47D breast, in the test on HCT-116 colon, in the test with SNB-75 CNS, in the test with MDA-MB-435, with K-562 leukemia and in the test on 786-0 renal was greater than 100 µM in each case. In addition, the TGI with MALME-3M melanoma, in the test with NCI-H226 lung and in the test with ACHN renal was greater than 100 µM each time.
